Source: US7452704B2, “Dehydrogenase and a gene encoding the same” (priority 2002, dated 2008)

Assays:
Format in all cases: biochemical, Pseudomonas putida ATCC 12633
[1] = target: T1, N-methyl-L-phenylalanine dehydrogenase (Pseudomonas putida, UniProt Q5FB93); assay: Substrate specificity for amines with NADPH as coenzyme (Example 14)
T1 construct: made in house
Experimental: (§1) Purified form of the present enzyme was obtained from cloned Escherichia coli cells in the same way as in Example 5.
Enzyme activity was measured by adding thereto various amines shown in Table 5 to a final concentration of 60 mM, NADPH to a final concentration of 0.2 mM, and β-phenylpyruvic acid to a final concentration of 10 mM, and examining the change in absorbance of the reaction solution at 340 nm. The reaction temperature during measurement was 37° C.

[2] = target: T1, N-methyl-L-phenylalanine dehydrogenase; assay: Substrate specificity for keto acids with NADPH as coenzyme (Example 6); details: keto acid 10 mM, NADPH 0.2 mM, methylamine pH 10 60 mM, 37° C.; β-phenylpyruvic acid = 100%
Experimental: as §1
Enzyme activity was measured by adding thereto various keto acids shown in Table 3 to a final concentration of 10 mM, NADPH to a final concentration of 0.2 mM, and methylamine adjusted to pH 10 with sulfuric acid to a final concentration of 60 mM, and examining the change in absorbance of the reaction mixture at 340 nm. The reaction temperature during measurement was 37° C. Defining the activity of the enzyme when β-phenylpyruvic acid was used as the substrate as 100%, the results are shown in Table 3 for relative activity.

[3] = target: dehydrogenase represented by the amino acid sequence of SEQ ID No. 1 (Pseudomonas putida, UniProt Q5FB93); assay: Inhibition of dehydrogenase activity by divalent heavy metals; details: 0.01 mM
[4] = target: T1, N-methyl-L-phenylalanine dehydrogenase; assay: Substrate specificity for keto acids with NADH as coenzyme (Example 11); details: keto acid 40 mM (β-phenylpyruvic acid 30 mM), NADH 0.3 mM, methylamine 180 mM, pH 10.0, 37° C.; pyruvic acid = 100%
Experimental: as §1
Enzyme activity was measured by adding thereto various keto acids shown in Table 4 to a final concentration of 40 mM (except for β-phenylpyruvic acid, which was 30 mM), NADH to a final concentration of 0.3 mM, bis-Tris propane buffer (pH 10.0) to a final concentration of 100 mM, and methylamine to a final concentration of 180 mM, and examining the change in absorbance of the reaction solution at 340 nm. The reaction temperature during measurement was 37° C.

[5] = target: T1, N-methyl-L-phenylalanine dehydrogenase; assay: Reverse reaction with NAD as coenzyme (Example 13); details: N-methyl-L-alanine 50 mM, NAD 10 mM, pH 10.0, 37° C.
Experimental: as §1
Enzyme activity was measured by adding thereto N-methyl-L-alanine to a final concentration of 50 mM, NAD to a final concentration of 10 mM, and bis-Tris propane buffer (pH 10.0) to a final concentration of 100 mM, and examining the change in absorbance of the reaction mixture at 340 nm. The reaction temperature during measurement was 37° C. The activity was 7.8×10^−3 (u/mg of protein).

[6] = target: T2, N-methyl-L-phenylalanine dehydrogenase (Pseudomonas putida, UniProt Q5FB93); assay: Measurement of optimal pH, NADPH (Example 7); details: phenylpyruvic acid and methylamine as substrates, 37° C.
T2 construct: made in house
T2 sequence (Q5FB93 whole entry, looked up): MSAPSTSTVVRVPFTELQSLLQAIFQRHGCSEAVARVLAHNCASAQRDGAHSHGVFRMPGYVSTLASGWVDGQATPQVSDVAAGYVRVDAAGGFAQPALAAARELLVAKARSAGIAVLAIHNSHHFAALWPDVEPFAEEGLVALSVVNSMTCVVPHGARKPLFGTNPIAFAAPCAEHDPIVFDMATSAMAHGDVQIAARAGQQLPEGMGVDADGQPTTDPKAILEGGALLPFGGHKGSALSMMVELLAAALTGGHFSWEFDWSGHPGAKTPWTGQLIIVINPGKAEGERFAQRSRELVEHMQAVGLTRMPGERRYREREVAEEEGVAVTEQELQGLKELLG
Experimental: as §1
Enzyme activity was measured by adding thereto β-phenylpyruvic acid to a final concentration of 10 mM, NADPH to a final concentration of 0.2 mM, and methylamine adjusted to various pH values with sulfuric acid to a final concentration of 60 mM, and examining the change in absorbance of the reaction solution at 340 nm. The reaction temperature during measurement was 37° C. Defining the amount of enzyme that react with 1 micromole of β-phenylpyruvic acid per minute as 1 unit, the results are shown in FIG. 1 for the relationship between the number of units per protein amount (u/mg) and pH. The optimal pH of the reaction was 10.0.

[7] = target: T2, N-methyl-L-phenylalanine dehydrogenase; assay: Optimal working temperature for the enzyme (Example 8); details: phenylpyruvic acid and methylamine as substrates, pH 10; listed as dehydrogenase represented by the amino acid sequence of SEQ ID No. 1
Experimental: Activity was measured using the same reaction conditions as in Example 6 and with methylamine-sulfuric acid (pH 10), except that the temperature was varied. The optimal temperature was 30 to 40° C.

[8] = target: T2, N-methyl-L-phenylalanine dehydrogenase; assay: Thermal stability of the enzyme (Example 10)
Experimental: The purified enzyme obtained in Example 5 was left at 25° C., 30° C., 35° C., 40° C., 45° C., and 50° C. for 30 minutes, and then measured for activity as in Example 7. The results are shown in FIG. 4 as remaining activity, with the activity of the untreated enzyme (left in ice) defined as 100.

[9] = target: T2, N-methyl-L-phenylalanine dehydrogenase; assay: Measurement of optimal pH when NADH is the coenzyme (Example 12); details: pyruvic acid 80 mM, NADH 0.3 mM, methylamine 180 mM, 37° C.
Experimental: as §1
Enzyme activity was measured by adding thereto pyruvic acid to a final concentration of 80 mM, NADH to a final concentration of 0.3 mM, and methylamine adjusted to various pH values with sulfuric acid to a final concentration of 180 mM, and examining the change in absorbance of the reaction mixture at 340 nm. The reaction temperature during measurement was 37° C. […] The optimal pH of the reaction was 9.5.

present dehydrogenase = target: T3, present dehydrogenase (Pseudomonas putida, UniProt Q5FB93); assay: Activity of the present dehydrogenase in crude extract of co-expressing Escherichia coli (Example 18); details: crude cellular extract; pH 10.0, 0.2 mM NADPH, 30 mM methylamine, 10 mM sodium pyruvate, 30° C.
T3 construct: made in house; host or cells: Escherichia coli BL21 (DE3) carrying pENMadh and pSTV28-GDH; crude cellular extract
T3 sequence (Q5FB93 1-341): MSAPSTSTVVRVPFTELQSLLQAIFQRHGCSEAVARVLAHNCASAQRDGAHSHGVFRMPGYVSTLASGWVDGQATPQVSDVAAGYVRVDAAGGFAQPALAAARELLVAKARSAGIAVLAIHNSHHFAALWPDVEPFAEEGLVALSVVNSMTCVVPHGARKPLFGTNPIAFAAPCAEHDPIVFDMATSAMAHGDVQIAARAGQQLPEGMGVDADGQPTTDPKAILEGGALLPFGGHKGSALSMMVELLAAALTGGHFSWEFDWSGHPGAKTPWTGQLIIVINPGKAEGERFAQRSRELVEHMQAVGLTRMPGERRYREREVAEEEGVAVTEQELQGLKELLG
Experimental: Activity of the present dehydrogenase was measured in a reaction mixture containing 100 mM bis-trispropane buffer (pH 10.0), 0.2 mM NADPH, 30 mM methylamine, and 10 mM sodium pyruvate at 30° C. 1 U was defined as the amount of the enzyme capable of oxidizing 1 μmol of NADPH per minute under the above reaction conditions.

[10] = amine 60 mM, NADPH 0.2 mM, β-phenylpyruvic acid 10 mM, 37° C., methylamine = 100%

Row | Molecule | Relative activity [1, 10] [%] | Relative activity [2] [%] | Relative activity [4] [%] | other results
1 | N [ammonium] |  |  |  | Relative activity [1]: 0%
2 | CC(C)N [isopropylamine] | 1.5 |  |  | 
3 | CCCCCCC(=O)C(=O)O [2-ketooctanoic acid] |  | 25 |  | 
4 | [Cl][Cu][Cl] [copper chloride (CuCl2), copper chloride] |  |  |  | effect on dehydrogenase activity [3]: inhibited
5 | NC1CCCCC1 [cyclohexanamine] | 1.3 |  |  | 
6 | [Cl][Hg][Cl] [mercury chloride (HgCl2), mercury chloride] |  |  |  | effect on dehydrogenase activity [3]: inhibited
7 | CN [methylamine] | 100 |  |  | 
8 | CCCC(=O)C(=O)O [2-keto-n-valeric acid] |  | 53 | 7.5 | 
9 | CN[C@@H](C)C(=O)O [N-methyl-L-alanine] |  |  |  | activity (reverse reaction) [5]: 7.8×10^−3 u/mg of protein
10 | CCC(=O)C(=O)O [2-ketobutyric acid] |  | 98 | 15 | 
11 | CNC [dimethylamine] | 1.4 |  |  | 
12 | O=C(O)C(=O)CF [β-fluoropyruvic acid] |  | 90 | 4.2 | 
13 | O=C(O)C(=O)Cc1ccccc1 [phenylpyruvic acid] |  | 100 | 0 | 
14 | CCN [ethylamine] | 1.5 |  |  | 
15 | CC(=O)C(=O)O [pyruvic acid] |  | 334 | 100 | 
16 | CCCN [N-propylamine] | 1.1 |  |  | 
17 | CCCCC(=O)C(=O)O [2-ketohexanoic acid] |  | 174 | 20 | 
18 | present enzyme: novel dehydrogenase from Pseudomonas putida ATCC 12633, polypeptide of SEQ ID No. 1 (protein, listed as Pseudomonas putida) MSAPSTSTVVRVPFTELQSLLQAIFQRHGCSEAVARVLAHNCASAQRDGAHSHGVFRMPGYVSTLASGWVDGQATPQVSDVAAGYVRVDAAGGFAQPALAAARELLVAKARSAGIAVLAIHNSHHFAALWPDVEPFAEEGLVALSVVNSMTCVVPHGARKPLFGTNPIAFAAPCAEHDPIVFDMATSAMAHGDVQIAARAGQQLPEGMGVDADGQPTTDPKAILEGGALLPFGGHKGSALSMMVELLAAALTGGHFSWEFDWSGHPGAKTPWTGQLIIVINPGKAEGERFAQRSRELVEHMQAVGLTRMPGERRYREREVAEEEGVAVTEQELQGLKELLG |  |  |  | optimal pH [6]: 10.0; optimal pH ([6]; listed as dehydrogenase of the present invention): around 10; optimal temperature [7]: around 35 °C; remaining activity ([8]; left 30 minutes, up to 30° C., untreated enzyme = 100): 100%; temperature of thermal stability ([8]; treated at optimal pH (pH 10) for 30 minutes): < 30 °C; optimal pH [9]: 9.5; activity of the present dehydrogenase (present dehydrogenase): 6.6 U/mg of protein
